Experimental data from patent US7879795B2, “Enhancement of tigecycline potency using efflux pump inhibitors” (Mpex Pharmaceuticals, Inc., priority 2004, dated 2011).

Assays:
[1] = system: P. aeruginosa strain PAM1723 overexpressing MexAB-OprM efflux pump; experiment: Neutropenic mice thigh model of PA infection; type: in vivo; conditions: levofloxacin 30 mg/kg SQ, EPI 60 mg/kg IP, 2 hours post-infection
Method: Efficacy of the EPIs was evaluated in a Neutropenic Mice Thigh Model of P. aeruginosa Infection. Neutropenia was induced by cyclophosphamide 100 mg/kg IP on days 3 and 1 prior to infection. P. aeruginosa strain PAM1723 overexpressing MexAB-OprM efflux pump was grown overnight in Mueller-Hinton Broth (MHB). The next day, the overnight culture was diluted in fresh MHB and was allowed to re-grow to ˜10^8 CFU/mL (OD600˜0.3). The culture was spun down, washed twice with phosphate buffered saline (PBS) and re-suspend in PBS to ˜4×10^6 CFU/mL. Next, this culture was mixed 1:1 with 14% hog-gastric mucin in PBS to give a final inoculum of 2×10^6 CFU/mL. Infection was initiated with injection of 0.1 mL of inoculum (˜2×10^5 CFU/thigh) directly into both thighs of each mouse. Two mice from each treatment group were euthanized at various times after the start of treatment. The thighs were removed aseptically, homogenized in saline, and immediately plated to determine bacterial load (CFU/ml). Treatment was initiated 2 hours post infection.

[2] = Tissue levels after 2-hour IV infusion in rats; type: in vivo, rat; conditions: for concentration at 4 h: 2 h after end of 2-hour IV infusion; for concentration at 4 h / concentration at 2 h / concentration at 6 h: 10 mg/kg; for concentration at 2 h: end of 2-hour IV infusion; for tissue levels and clearance from tissues after 2-hour IV infusion: rat, in words; for concentration at 6 h: 4 h after end of 2-hour IV infusion
Method: Levels of EPIs in various tissues were evaluated after 2-hour IV infusion in rats. The rats received 10 mg/kg IV infusion through FVC. Animals were divided into 2 groups: group 1 was sacrificed immediately after the end of infusion and group 2, 2 h or 4 h after the end of infusion. Tissues from each animal were collected, homogenized and compounds were extracted. Tissues were mixed with saline at 1:1 ratio (v/w) in 12×75 mm polypropylene round bottom tubes. The mixtures were homogenized with a Polytron homogenizer (on ice, 3×10-15 seconds with 30 seconds intervals at the setting of 7). 50 μl of homogenized tissue were immediately transferred to an Eppendorf tube and 2-volumes of 4% TCA were added. After vortexing for 30 seconds, the tubes were centrifuged in a microfuge at top speed (13.2 k rpm) for 5 minutes. The supernatant was collected, and 45 μl of the supernatant was transferred to a glass LC/MS/MS vial (Kimble, 11 mm, 1.5 ml) for analysis, which allowed determination of tissue levels of EPIs at the end of the infusion and 2 h or 4 h later.

[3] = system: P. aeruginosa strain PAM1032 overexpressing MexAB-OprM efflux pump; experiment: Mouse sepsis model of PA infection (ED50 of levofloxacin); type: in vivo
Method: P. aeruginosa strain PAM1032 overexpressing MexAB-OprM efflux pump was grown overnight in Mueller-Hinton Broth (MHB). The next day, the overnight culture was diluted in fresh MHB and was allowed to re-grow to ˜10^8 CFU/mL (OD600˜0.3). The culture was spun down, washed twice with phosphate buffered saline (PBS) and re-suspend in PBS to ˜1.2×10^7 CFU/mL (OD=0.12). Next this culture was mixed 1:1 with 14% hog-gastric mucin in PBS to give a final inoculum of […].
The effect of the EPI at 50 mg/kg was determined according to the following experimental design: […]

[4] = system: strain 29A2 of P. aeruginosa overexpressing MexAB-OprM efflux pump; experiment: Neutropenic mice lung model of PA infection; type: in vivo; conditions: for bacterial load in infected lungs, EPI with levofloxacin: levofloxacin 30 mg/kg SQ plus EPI IP
Method: Neutropenia was induced by cyclophosphamide 100 mg/kg IP on days 3 and 1 prior to infection. The strain 29A2 of P. aeruginosa overexpressing MexAB-OprM efflux pump was grown overnight in Mueller-Hinton Broth (MHB). The next day overnight culture was diluted in fresh MHB and was allowed to re-grow to ˜10^8 CFU/mL (OD600˜0.3). The culture was spun down, washed twice with phosphate buffered saline (PBS) and re-suspended in PBS to ˜4×10^7 CFU/mL. 50 μl of inoculum was used for intratracheal instillation of mice, which were anesthetized with sevoflourane/oxygen. […] Four mice from each treatment group were euthanized at various times after the start of treatment. The lungs were removed aseptically, homogenized in saline, and immediately plated to determine bacterial load (CFU/ml) in infected lungs. P. aeruginosa is plotted as a function of time in FIG. 20.

[5] = Rat serum pharmacokinetics after 2-hour IV infusion; type: in vivo; conditions: serum, 2-hour IV infusion, total dose 10 mg/kg, two-compartment model
Method: Rat serum pharmacokinetics of compounds 1, 3, 7, and 21 was evaluated after 2-hour IV infusion of 1 mg/ml EPI solution in 0.9% saline. Total infused dose was 10 mg/kg. FIG. 12 depicts the serum concentrations as a function of time. A two-compartment model was used to fit the data and calculate PK parameters.

## NCCC[C@@H](N)C(=O)N[C@H](CCc1ccccc1)C(=O)Nc1cnc2ccccc2c1 [Compound 1, 2-(R),5-Diamino-pentanoic acid [3-phenyl-1-(R)-(quinolin-3-ylcarbamoyl)-propyl]-amide]
[1]
  bacterial load in thighs, EPI with levofloxacin versus levofloxacin alone: significantly enhanced activity of levofloxacin
[2]; rat brain concentration
  2 h/4 h Ratio: 1.34
[2]; rat brain
  concentration at 4 h: 130 ng/mL
  concentration at 2 h: 180 ng/mL
[2]; rat heart concentration
  2 h/4 h Ratio: 0.93
[2]; rat heart
  concentration at 4 h: 2340 ng/mL
  concentration at 2 h: 2180 ng/mL
[2]; rat kidney concentration
  2 h/4 h Ratio: 1.66
[2]; rat kidney
  concentration at 4 h: 29600 ng/mL
  concentration at 2 h: 49300 ng/mL
[2]; rat liver concentration
  2 h/4 h Ratio: 0.99
[2]; rat liver
  concentration at 4 h: 10600 ng/mL
  concentration at 2 h: 10600 ng/mL
[2]; rat lung concentration
  2 h/4 h Ratio: 1.55
[2]; rat lung
  concentration at 4 h: 4180 ng/mL
  concentration at 2 h: 6500 ng/mL
[2]; rat muscle concentration
  2 h/4 h Ratio: 1.59
[2]; rat muscle
  concentration at 4 h: 2860 ng/mL
  concentration at 2 h: 4540 ng/mL
[2]; rat pancreas concentration
  2 h/4 h Ratio: 1.34
[2]; rat pancreas
  concentration at 4 h: 4050 ng/mL
  concentration at 2 h: 5400 ng/mL
[2]; rat spleen concentration
  2 h/4 h Ratio: 1.35
[2]; rat spleen
  concentration at 4 h: 3710 ng/mL
  concentration at 2 h: 5010 ng/mL
[2]; rat testicles concentration
  2 h/4 h Ratio: 2.04
[2]; rat testicles
  concentration at 4 h: 280 ng/mL
  concentration at 2 h: 580 ng/mL
[2]; rat thymus concentration
  2 h/4 h Ratio: 1.23
[2]; rat thymus
  concentration at 4 h: 2760 ng/mL
  concentration at 2 h: 3410 ng/mL
[2]
  tissue levels and clearance from tissues after 2-hour IV infusion: High levels
[3]; EPI at 50 mg/kg IP, survival at 24 hours
  decrease of ED50 of levofloxacin: 4 fold
[4]; EPI 100 mg/kg IP alone (0/100) versus no addition
  growth of P. aeruginosa in infected lungs, EPI alone: No difference in growth
[4]
  bacterial load in infected lungs, EPI with levofloxacin: significantly decreased bacterial load
[5]
  clearance: 24 mL/min/kg

## NCCC[C@H](N)C(=O)N[C@H](CCc1ccccc1)C(=O)Nc1cnc2ccccc2c1 [Compound 3, 2-(S),5-Diamino-pentanoic acid [3-phenyl-1-(R)-(quinolin-3-ylcarbamoyl)-propyl]-amide]
[1]
  bacterial load in thighs, EPI with levofloxacin versus levofloxacin alone: potentiated levofloxacin in vivo
[2]; rat brain concentration
  2 h/4 h Ratio: 0.35
[2]; rat brain
  concentration at 4 h: 210 ng/mL
  concentration at 2 h: 70 ng/mL
[2]; rat heart concentration
  2 h/4 h Ratio: 4.82
[2]; rat heart
  concentration at 4 h: 470 ng/mL
  concentration at 2 h: 2260 ng/mL
[2]; rat kidney concentration
  2 h/4 h Ratio: 7.28
[2]; rat kidney
  concentration at 4 h: 1680 ng/mL
  concentration at 2 h: 12200 ng/mL
[2]; rat liver concentration
  2 h/4 h Ratio: 1.60
[2]; rat liver
  concentration at 4 h: 830 ng/mL
  concentration at 2 h: 1330 ng/mL
[2]; rat lung concentration
  2 h/4 h Ratio: 2.23
[2]; rat lung
  concentration at 4 h: 1910 ng/mL
  concentration at 2 h: 4270 ng/mL
[2]; rat muscle concentration
  2 h/4 h Ratio: 1.91
[2]; rat muscle
  concentration at 4 h: 1140 ng/mL
  concentration at 2 h: 2180 ng/mL
[2]; rat pancreas concentration
  2 h/4 h Ratio: 2.91
[2]; rat pancreas
  concentration at 4 h: 380 ng/mL
  concentration at 2 h: 1110 ng/mL
[2]; rat spleen concentration
  2 h/4 h Ratio: 6.16
[2]; rat spleen
  concentration at 4 h: 720 ng/mL
  concentration at 2 h: 4410 ng/mL
[2]; rat testicles concentration
  2 h/4 h Ratio: 5.14
[2]; rat testicles
  concentration at 4 h: 60 ng/mL
  concentration at 2 h: 320 ng/mL
[2]; rat thymus concentration
  2 h/4 h Ratio: 1.69
[2]; rat thymus
  concentration at 4 h: 1460 ng/mL
  concentration at 2 h: 2460 ng/mL
[2]
  tissue levels and clearance from tissues after 2-hour IV infusion: Lower levels
[3]; increasing concentrations of EPI, dose-dependent
  decrease in ED50 of levofloxacin: up to 4 fold
[4]
  bacterial load in infected lungs, EPI with levofloxacin: dose-dependent efficacy in levofloxacin potentiation
[5]
  clearance: 23.3 mL/min/kg

## NCCC[C@H](N)C(=O)N[C@H](Cc1ccc(C(F)(F)F)cc1)C(=O)Nc1cnc2ccccc2c1 [Compound 21, 2-(S),5-Diamino-pentanoic acid [1-(R)-(quinolin-3-ylcarbamoyl)-2-(4-trifluoromethyl-phenyl)-ethyl]amide]
[1]
  bacterial load in thighs, EPI with levofloxacin versus levofloxacin alone: significantly enhanced activity of levofloxacin
[2]; rat brain concentration
  2 h/6 h Ratio: 16.37
[2]; rat brain
  concentration at 4 h: 470 ng/mL
  concentration at 6 h: 30 ng/mL
  concentration at 2 h: 490 ng/mL
[2]; rat heart concentration
  2 h/6 h Ratio: 7.33
[2]; rat heart
  concentration at 4 h: 1760 ng/mL
  concentration at 6 h: 720 ng/mL
  concentration at 2 h: 5250 ng/mL
[2]; rat kidney concentration
  2 h/6 h Ratio: 20.10
[2]; rat kidney
  concentration at 4 h: 20800 ng/mL
  concentration at 6 h: 2920 ng/mL
  concentration at 2 h: 58700 ng/mL
[2]; rat liver concentration
  2 h/6 h Ratio: 30.21
[2]; rat liver
  concentration at 4 h: 2320 ng/mL
  concentration at 6 h: 200 ng/mL
  concentration at 2 h: 5950 ng/mL
[2]; rat lung concentration
  2 h/6 h Ratio: 3.43
[2]; rat lung
  concentration at 6 h: 3900 ng/mL
  concentration at 2 h: 13400 ng/mL
[2]; rat muscle concentration
  2 h/6 h Ratio: 3.94
[2]; rat muscle
  concentration at 4 h: 1360 ng/mL
  concentration at 6 h: 1210 ng/mL
  concentration at 2 h: 4750 ng/mL
[2]; rat pancreas concentration
  2 h/6 h Ratio: 20.73
[2]; rat pancreas
  concentration at 4 h: 1580 ng/mL
  concentration at 6 h: 470 ng/mL
  concentration at 2 h: 9710 ng/mL
[2]; rat spleen concentration
  2 h/6 h Ratio: 3.46
[2]; rat spleen
  concentration at 4 h: 4440 ng/mL
  concentration at 6 h: 2210 ng/mL
  concentration at 2 h: 7660 ng/mL
[2]; rat testicles concentration
  2 h/6 h Ratio: 8.32
[2]; rat testicles
  concentration at 4 h: 330 ng/mL
  concentration at 6 h: 80 ng/mL
  concentration at 2 h: 700 ng/mL
[2]; rat thymus concentration
  2 h/6 h Ratio: 2.02
[2]; rat thymus
  concentration at 4 h: 6000 ng/mL
  concentration at 6 h: 3590 ng/mL
  concentration at 2 h: 7250 ng/mL
[2]
  tissue levels and clearance from tissues after 2-hour IV infusion: Slower clearance
[5]
  clearance: 16.2 mL/min/kg
